Literature values in paper PMC3197600 (PLoS Pathogens, 2011).

Test system: oseltamivir-resistant His274Tyr H1N1 infection
Conditions: human, in vivo; cited from earlier work

[H]/N=C(\N)N[C@H]1C=C(C(=O)O)O[C@@H]([C@H](OC)[C@H](O)COC(=O)CCCCCCC)[C@@H]1NC(C)=O [CS-8958, laninamivir octanoate]
effectiveness compared with oseltamivir: not significantly better than oseltamivir
